Among the data in patent publication US20040087571A1, “Methods of using CCR1 antagonists as immunomodulatory agents” (Pfizer Inc, priority 2002, published 2004) are melting point and solubility values, retold here.

Usually melting point stands for the temperature, or range, at which the solid turns liquid. The solubility is how much of the substance goes into solution per volume. A lower solubility goes with little dissolved substance.

Experiment in one data set: not given
The molecule `CC(C)(F)CC[C@H](C[C@H](O)[C@H](Cc1ccccc1)NC(=O)c1cnc2ccccc2n1)C(=O)NN` [Example 312, Quinoxaline-2-carboxylic acid (1(S)-benzyl-7-fluoro-4(R)-hydrazinocarbonyl-2(S)-hydroxyl-7-methyl-octyl)-amide] gave a melting point of 147 to 149 °C.
In turn, `CC(C)(O)CC[C@H](C[C@H](O)[C@H](Cc1ccccc1F)NC(=O)c1cnc2ccccc2n1)C(=O)NO` [Example 320, Quinoxaline-2-carboxylic acid [1(S)-(2-fluoro-benzyl)-2(S),7-dihydroxy-4(R)-hydroxycarbamoyl-7-methyl-octyl]-amide] registered a melting point of 130 to 131 °C.
`CC(C)(O)CC[C@H](C[C@H](O)[C@H](Cc1ccccc1F)NC(=O)c1cnc2ccccc2n1)C(N)=O` [Example 321, Quinoxaline-2-carboxylic acid [4(R)-carbamoyl-1(S)-(2-fluoro-benzyl)-2(S),7-dihydroxy-7-methyl-octyl]-amide] yielded a melting point of 147 to 148 °C.
Still for that read-out and setting: the value for `CC(C)(O)CC[C@H](C[C@H](O)[C@H](Cc1ccc(F)c(F)c1)NC(=O)c1cnc2ccccc2n1)C(=O)NO` [Example 322, Quinoxaline-2-carboxylic acid [1(S)-(3,4-difluoro-benzyl)-2(S),7-dihydroxy-4(R)-hydroxycarbamoyl-7-methyl-octyl]-amide] was 150 to 153 °C.
Still for that read-out and setting: the figure for `CC(C)(O)CC[C@H](C[C@H](O)[C@H](Cc1ccc(F)c(F)c1)NC(=O)c1cnc2ccccc2n1)C(N)=O` [Example 323, Quinoxaline-2-carboxylic acid [4(R)-carbamoyl-1(S)-(3,4-difluoro-benzyl)-2(S),7-dihydroxy-7-methyl-octyl]-amide] is 110 to 120 °C; for `CC(C)(O)CC[C@H](C[C@H](O)[C@H](Cc1cccc2ccccc12)NC(=O)c1cnc2ccccc2n1)C(N)=O` [Example 324, Quinoxaline-2-carboxylic acid (4(R)-carbamoyl-2(S),7-dihydroxy-7-methyl-1(S)-naphthalen-1-ylmethyl-octyl)-amide] it is 155 to 158 °C.

The nature of the next data set: Solubility. The format is physicochemical.
`CC(C)(O)CC[C@H](C[C@H](O)[C@H](Cc1cccs1)NC(=O)c1cnc2ccccc2n1)C(N)=O` [Example 313, Quinoxaline-2-carboxylic Acid (4(r)-carbamoyl-2(s),7-dihydroxy-7-methyl-1(s)-thiophen-2-ylmethyl-octyl)-amide]: the solubility was over 250 mg/mL.
